How the values were obtained:
LRS / RagD binding = target: T1, LRS / RagD binding (Homo sapiens, UniProt Q9NQL2+Q9P2J5); assay: In vitro pull-down of RagD with GST-LRS
T1 construct: made in house; RagD: 293T cell lysate
Protocol: In FIG. 6c, purified GST or GST-LRS protein was incubated with HA-RagD transfected cell lysates in the presence of GDPβS or GTPγS. The co-precipitated RagD was determined by immunoblotting with anti-HA antibody.
In FIG. 10a, the effect of tRNA on in vitro LRS-RagD binding. 293T cell lysates were incubated with purified GST or GST-fused LRS in the presence of the combinations of leucine (0.1 mM), ATP (0.1 mM), and tRNA^Leu (25 μg). The precipitated RagD was determined by immunoblotting with anti-RagD antibody.
Recombinant LRS or RagD fragment proteins were expressed as GST fusion proteins and purified by glutathione sepharose. The interactions between RagD fragments and myc-LRS overexpressed cell lysates or between LRS fragments and HA-RagD overexpressed cell lysates were tested using in vitro binding assays. Binding assay was conducted in 25 mM Tris-HCl buffer (pH7.4) containing 10 mM NaCl, 1 mM MgCl2, 1 mM EDTA, 0.5 mM EGTA, and 0.5% Triton X-100.

mTORC1 [1] = assay: S6K phosphorylation (mTORC1 activation) by immunoblotting in HeLa cells; format: cell-based; details: for S6K phosphorylation by the leucine analogue itself: HeLa cells starved 1 hour of leucine, 0.8 or 8 mM analogue; for leucine-induced S6K phosphorylation: HeLa cells, preincubated with 0.8 or 8 mM analogue, then 0.8 mM leucine 5 min
Protocol: (§1) In FIG. 9b, HeLa cells were starved for 1 hour of leucine and preincubated with either 0.8 or 8 mM leucinol or leucine amide. After 5 min, 0.8 mM leucine was added. After 5 min incubation, cells were harvested and S6K phosphorylation was determined by immunoblotting.
(§2) For leucine depletion, cells were rinsed with leucine-free DMEM twice, incubated in leucine-free DMEM for 60 minutes, and stimulated with […] leucine for 5-60 minutes. For amino acid starvation, cells were rinsed with and incubated in DPBS containing 25 mM glucose, 1 mM sodium pyruvate, lx MEM vitamins for 60 minutes, and replaced with and incubated in DMEM for 5-60 minutes.
(§3) Cells were dissolved in the lysis buffer containing 1% Triton X-100, 40 mM HEPES (pH7.4), 2 mM EDTA, 10 mM pyrophosphate, 10 mM glycerophosphate, and protease inhibitor cocktail. The lysates were centrifuged at 13,000 rpm for 30 minutes. We then fractionated 20 μg of the extracted proteins by SDS-PAGE. For immunoprecipitations, the cells were lysed (50 mM Tris-HCL (pH 7.4), 10 mM NaCl, 1 mM EDTA, 0.5 mM EGTA, 1 mM MgCl2, 0.1% CHAPS, and 0.5% Triton X-100, 1 mM phenylmethylsulfonyl fluoride) and the primary antibodies were added to the lysates and incubated with rotation for 2 hr at 4° C. A 50% slurry of protein agarose G-sepharose was then added and the incubation continued for an additional 4 hr. After washing three times with the ice-cold lysis buffer, the precipitates were dissolved in the SDS sample buffer and separated by SDS-PAGE.

mTORC1 [2] = assay: S6K phosphorylation (mTORC1 activation) by immunoblotting in 293T cells; format: cell-based; details: for EC50: Homo sapiens, HEK-293T; for EC50 / leucine-induced S6K phosphorylation / amino acid-induced S6K phosphorylation: 293T cells; for S6K phosphorylation by the leucine analogue itself: 293T cells starved 1 hour of leucine, 0.8 or 8 mM analogue; for leucine-induced S6K phosphorylation: preincubated with 0.8 or 8 mM analogue, then 0.8 mM leucine 5 min; for amino acid-induced S6K phosphorylation: siRNA 48 hours
Protocol: as §1, with “FIGS. 9a-9d show the effect of LRS knockdown on leucine- or leucine analogues-stimulated S6K phosphorylation. In” for “In”, “9a, the effect of leucine analogues on leucine-stimulated S6K phosphorylation is shown. 293T” for “9b, HeLa”
In FIG. 11a, 293T cells were treated with leucine at the indicated concentration for 5 min. Leucine-dependent S6K phosphorylation was determined by immunoblotting. In FIG. 11b, quantitation of p-S6K band in FIG. 11a is shown. EC50 of leucine stimulation of mTORC1 was about […]. In FIG. 11c, kinetic parameters for leucylation and ATP-PPi exchange activity of WT LRS is shown.
as §2, §3

293T cells = assay: Cell size determination (FSC of G1 cells, FACS); format: cell-based
Protocol: For measurement of cell size using forward scatter units (FSC) with unfixed cells. 293T cells were plated, washed once with PBS, and resuspended in PBS containing 0.1% serum, 5 mM EDTA, 5 ng/ml propidium iodide (PI; Sigma). Samples were analyzed by FACS analysis (FACS caliber; Becton Dickinson) for cell size (FSC). The mean of FSC of G1 phase cells was determined.

EGFP-LC3 puncta = assay: Autophagy: EGFP-LC3 puncta in siRNA-transfected cells; format: cell-based; details: starved for leucine and serum for 2 hours
Protocol: The cells were starved for leucine and serum for 2 hours. Accumulation of EGFP-LC3 in puncta, was monitored.

T1 sequence (Q9P2J5 whole entry): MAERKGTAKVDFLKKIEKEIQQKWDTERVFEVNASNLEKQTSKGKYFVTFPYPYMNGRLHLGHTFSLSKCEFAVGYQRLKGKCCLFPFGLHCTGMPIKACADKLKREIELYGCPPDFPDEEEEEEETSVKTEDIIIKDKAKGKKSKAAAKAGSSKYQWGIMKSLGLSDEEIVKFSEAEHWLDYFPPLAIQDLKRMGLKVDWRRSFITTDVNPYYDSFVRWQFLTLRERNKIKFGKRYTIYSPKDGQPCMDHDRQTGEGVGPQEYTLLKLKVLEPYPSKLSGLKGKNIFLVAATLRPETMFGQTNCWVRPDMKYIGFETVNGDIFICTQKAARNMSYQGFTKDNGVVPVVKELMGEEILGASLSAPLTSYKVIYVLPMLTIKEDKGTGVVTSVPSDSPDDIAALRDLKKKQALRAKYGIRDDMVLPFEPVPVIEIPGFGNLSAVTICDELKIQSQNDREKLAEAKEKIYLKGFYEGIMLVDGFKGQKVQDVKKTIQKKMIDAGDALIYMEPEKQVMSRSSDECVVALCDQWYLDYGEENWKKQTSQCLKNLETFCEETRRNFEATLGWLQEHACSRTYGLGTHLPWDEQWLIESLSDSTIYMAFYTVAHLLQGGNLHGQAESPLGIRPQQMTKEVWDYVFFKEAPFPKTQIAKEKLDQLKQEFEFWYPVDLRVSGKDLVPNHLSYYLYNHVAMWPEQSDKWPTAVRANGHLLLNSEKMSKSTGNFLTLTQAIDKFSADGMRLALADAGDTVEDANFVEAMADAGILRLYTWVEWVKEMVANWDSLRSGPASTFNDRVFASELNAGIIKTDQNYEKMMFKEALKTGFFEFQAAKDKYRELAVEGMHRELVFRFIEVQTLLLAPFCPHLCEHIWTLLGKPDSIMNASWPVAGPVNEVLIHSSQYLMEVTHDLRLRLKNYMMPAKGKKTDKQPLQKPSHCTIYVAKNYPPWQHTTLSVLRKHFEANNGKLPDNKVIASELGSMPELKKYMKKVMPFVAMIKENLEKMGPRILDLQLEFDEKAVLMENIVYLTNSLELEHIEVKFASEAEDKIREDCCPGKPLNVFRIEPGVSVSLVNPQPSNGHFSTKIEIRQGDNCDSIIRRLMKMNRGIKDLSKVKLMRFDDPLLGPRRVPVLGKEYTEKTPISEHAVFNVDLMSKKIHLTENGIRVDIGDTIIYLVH
T1 sequence (Q9NQL2 whole entry): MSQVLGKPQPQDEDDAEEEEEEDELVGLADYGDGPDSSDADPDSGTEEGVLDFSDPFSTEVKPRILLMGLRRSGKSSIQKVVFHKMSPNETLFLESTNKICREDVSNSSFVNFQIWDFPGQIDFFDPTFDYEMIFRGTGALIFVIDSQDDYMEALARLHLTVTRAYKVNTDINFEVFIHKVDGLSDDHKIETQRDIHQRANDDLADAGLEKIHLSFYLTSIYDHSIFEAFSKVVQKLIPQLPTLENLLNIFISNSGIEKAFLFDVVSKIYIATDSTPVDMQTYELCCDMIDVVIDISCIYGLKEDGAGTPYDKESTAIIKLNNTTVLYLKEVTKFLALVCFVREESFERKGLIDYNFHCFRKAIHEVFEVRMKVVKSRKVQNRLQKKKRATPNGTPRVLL

Nc1ncnc2c1ncn2[C@@H]1O[C@H](COP(=O)(O)OP(=O)(O)OP(=O)(O)O)[C@@H](O)[C@H]1O [ATP]
competition with RagD for LRS binding (LRS / RagD binding; GST-LRS with 293T cell lysates, ATP 0.1 mM, tRNA^Leu 25 μg): not

Nc1nc2c(ncn2[C@@H]2O[C@H](COP(=O)(O)OP(O)(O)=S)[C@@H](O)[C@H]2O)c(=O)[nH]1 [GDPβS]
binding affinity of LRS to RagD (LRS / RagD binding; GST-LRS with HA-RagD transfected 293T cell lysates, presence of nucleotide analogue): significantly reduced

CC(C)C[C@H](N)C(=O)O [Leucine, L-Leucine]
EC50 (mTORC1 [1]; Homo sapiens, HeLa cells (data not shown), read-out: EC50 for leucine stimulation of mTORC1): ~80 µM | EC50 (mTORC1 [2]; 5 min, leucine 5 min, quantitation of p-S6K band (FIG. 11b legend), read-out: EC50 of leucine stimulation of mTORC1): ~80 µM | EC50 (mTORC1 [2]; read-out: EC50 for leucine stimulation of mTORC1): ~80 µM

CC(C)C[C@H](N)C(N)=O [leucinamide, L-Leucinamide]
S6K phosphorylation by the leucine analogue itself (mTORC1 [1]): significantly induced | leucine-induced S6K phosphorylation (mTORC1 [1]): further increased | S6K phosphorylation by the leucine analogue itself (mTORC1 [2]): significantly induced | leucine-induced S6K phosphorylation (mTORC1 [2]): further increased

CC(C)C[C@H](N)CO [leucinol, Leucinol]
S6K phosphorylation by the leucine analogue itself (mTORC1 [1]): no effect | leucine-induced S6K phosphorylation (mTORC1 [1]): inhibited leucine-induced S6K phosphorylation in dose-dependent manner | S6K phosphorylation by the leucine analogue itself (mTORC1 [2]): no effect | leucine-induced S6K phosphorylation (mTORC1 [2]): inhibited leucine-induced S6K phosphorylation in dose-dependent manner

MRS siRNA: siRNA CUACCGCUGGUUUAACAUUUCGUUU, SEQ ID NO 18 (chemistry not given here)
amino acid-induced S6K phosphorylation (mTORC1 [2]): not | cell size (293T cells): no effect

VRS siRNA: siRNA AGAAGAGGAUGUCAUGACCGGUCUC, SEQ ID NO 17 (chemistry not given here)
amino acid-induced S6K phosphorylation (mTORC1 [2]): not | cell size (293T cells): no effect

mTOR siRNA: siRNA GGAAGUACCCUACUUUGCUUGAGGU, SEQ ID NO 15 (chemistry not given here)
amino acid-induced S6K phosphorylation (mTORC1 [2]): significantly inhibited | LC3 puncta per cell compared to control siRNA (EGFP-LC3 puncta): statistically significant increase

Reference: US9435807B2, “Use of leucyl tRNA synthetase” (Medicinal Bioconvergence Research Center, priority 2011, dated 2016)
